Experimental data published in PubChem BioAssay AID256 (DTP/NCI, 2004).
“And” between values parts separate entries of the source, which are not always exact repeats. Equal entries are not always repeated. Toxic doses and inconclusive results are not listed.

System: CD2F1 mice, L1210 leukemia ip, survival T/C
Experiment: NCI In Vivo Anticancer Drug Screen. Data for tumor model L1210 Leukemia (intraperitoneal) in CD2F1 (CDF1) mice
Settings: higher = longer survival
In short: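 Activity against a transplanted murine tumor was judged by comparing the compound group with a vehicle group. The outcome in the treated animals was divided by that in the controls.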

[1] = endpoint: mean survival time, dose: 50.0 mg/kg/injection, schedule: Q04DX003 (ip), vehicle: saline
[2] = endpoint: mean survival time, dose: 100.0 mg/kg/injection, schedule: Q04DX003 (ip), vehicle: saline
[3] = endpoint: mean survival time, dose: 200.0 mg/kg/injection, schedule: Q04DX003 (ip), vehicle: saline
[4] = endpoint: mean survival time, dose: 100.0 mg/kg/injection, schedule: Q04DX003 (ip), vehicle: saline with Tween-80
[5] = endpoint: mean survival time, dose: 200.0 mg/kg/injection, schedule: Q04DX003 (ip), vehicle: saline with Tween-80

CC(C(=O)c1ccccc1)N(C)Cc1ccccc1 (stereo not given)
T/C [1]: 98 % of control | T/C [2]: 96 % of control | T/C [3]: 93 % of control

CCCCN=C(Cl)C(Cl)(c1ccccc1)c1ccccc1
T/C (endpoint: mean survival time, dose: 100.0 mg/kg/injection, schedule: Q04DX002 (ip), vehicle: saline): 98 % of control | T/C (endpoint: mean survival time, dose: 200.0 mg/kg/injection, schedule: Q04DX002 (ip), vehicle: saline): 103 % of control | T/C (endpoint: mean survival time, dose: 400.0 mg/kg/injection, schedule: Q04DX002 (ip), vehicle: saline): 95 % of control

O=C(c1ccccc1)C(CC[P+](c1ccccc1)(c1ccccc1)c1ccccc1)(OBr)c1ccccc1 (stereo not given)
T/C (endpoint: mean survival time, dose: 6.25 mg/kg/injection, schedule: Q01DX001 (ip), vehicle: saline with Tween-80): 112 % of control | T/C (endpoint: mean survival time, dose: 12.5 mg/kg/injection, schedule: Q01DX001 (ip), vehicle: saline with Tween-80): 97 % of control | T/C (endpoint: mean survival time, dose: 25.0 mg/kg/injection, schedule: Q01DX001 (ip), vehicle: saline with Tween-80): 101 % of control

CC[C@@H](C)[C@H]([C@H](CC(=O)N1CCC[C@@H]1[C@@H](OC)[C@H](C)C(=O)N[C@H](Cc1ccccc1)c1nccs1)OC)N(C)C(=O)[C@H](NC(=O)[C@@H](C(C)C)N(C)C)C(C)C
T/C (endpoint: median survival time, dose: 1.63 micrograms/kg/injection, schedule: Q01DX005 (ip), vehicle: saline + alcohol): 119 % of control | T/C (endpoint: median survival time, dose: 6.5 micrograms/kg/injection, schedule: Q01DX005 (ip), vehicle: saline + alcohol): 160 % of control | T/C (endpoint: median survival time, dose: 26.0 micrograms/kg/injection, schedule: Q01DX005 (ip), vehicle: saline + alcohol): 86 % of control

N#CCCN1CCOCC1
T/C (endpoint: mean survival time, dose: 100.0 mg/kg/injection, schedule: Q01DX009 (ip), vehicle: saline): 95 % of control | T/C [2]: 92 % of control | T/C (endpoint: mean survival time, dose: 200.0 mg/kg/injection, schedule: Q01DX009 (ip), vehicle: saline): 93 % of control | T/C [3]: 103 % of control | T/C (endpoint: mean survival time, dose: 400.0 mg/kg/injection, schedule: Q01DX009 (ip), vehicle: saline): 101 % of control | T/C (endpoint: mean survival time, dose: 400.0 mg/kg/injection, schedule: Q04DX003 (ip), vehicle: saline): 103 % of control

OC1C=CC(O)C1 (stereo not given)
T/C (endpoint: mean survival time, dose: 75.0 mg/kg/injection, schedule: Q01DX001 (ip), vehicle: saline): 97 % of control | T/C (endpoint: mean survival time, dose: 150.0 mg/kg/injection, schedule: Q01DX001 (ip), vehicle: saline): 101 % of control

Cc1c2ccccc2c(C)c2cnccc12
T/C (endpoint: mean survival time, dose: 100.0 mg/kg/injection, schedule: Q01DX009 (ip), vehicle: saline with Tween-80): 97 % of control | T/C (endpoint: mean survival time, dose: 200.0 mg/kg/injection, schedule: Q01DX009 (ip), vehicle: saline with Tween-80): 97 % of control | T/C (endpoint: mean survival time, dose: 400.0 mg/kg/injection, schedule: Q01DX009 (ip), vehicle: saline with Tween-80): 92 % of control

CC1(C)OC2C(/C=N/O)OC(n3ccc(=O)[nH]c3=O)C2O1 (stereo not given)
T/C (endpoint: median survival time, dose: 23.13 mg/kg/injection, schedule: Q01DX005 (ip), vehicle: Klucel (hydroxypropylcellulose) (HPC)): 107 % of control | T/C (endpoint: median survival time, dose: 46.25 mg/kg/injection, schedule: Q01DX005 (ip), vehicle: Klucel (hydroxypropylcellulose) (HPC)): 102 % of control | T/C (endpoint: median survival time, dose: 92.5 mg/kg/injection, schedule: Q01DX005 (ip), vehicle: Klucel (hydroxypropylcellulose) (HPC)): 102 % of control | T/C (endpoint: median survival time, dose: 185.0 mg/kg/injection, schedule: Q01DX005 (ip), vehicle: Klucel (hydroxypropylcellulose) (HPC)): 108 % of control

COP12(OCCO1)SC(C(F)(F)F)=C(C(F)(F)F)S2
T/C (endpoint: mean survival time, dose: 12.5 mg/kg/injection, schedule: Q01DX009 (ip), vehicle: saline with Tween-80): 102 % of control and 109 % of control | T/C (endpoint: mean survival time, dose: 25.0 mg/kg/injection, schedule: Q01DX009 (ip), vehicle: saline with Tween-80): 96 % of control and 101 % of control | T/C (endpoint: mean survival time, dose: 50.0 mg/kg/injection, schedule: Q01DX009 (ip), vehicle: saline with Tween-80): 100 % of control

O=S(=O)(Nc1ccc(Br)cc1)c1ccc(Cl)c(Cl)c1
T/C (endpoint: mean survival time, dose: 100.0 mg/kg/injection, schedule: Q04DX002 (ip), vehicle: saline with Tween-80): 91 % of control | T/C (endpoint: mean survival time, dose: 200.0 mg/kg/injection, schedule: Q04DX002 (ip), vehicle: saline with Tween-80): 88 % of control | T/C (endpoint: mean survival time, dose: 400.0 mg/kg/injection, schedule: Q04DX002 (ip), vehicle: saline with Tween-80): 88 % of control

CCC1(C)CCC2(C)C(CCC3C(C)(CO)CCCC32O)C1 (stereo not given)
T/C (endpoint: mean survival time, dose: 100.0 mg/kg/injection, schedule: Q01DX001 (ip), vehicle: saline with Tween-80): 98 % of control | T/C (endpoint: mean survival time, dose: 200.0 mg/kg/injection, schedule: Q01DX001 (ip), vehicle: saline with Tween-80): 94 % of control | T/C (endpoint: mean survival time, dose: 400.0 mg/kg/injection, schedule: Q01DX001 (ip), vehicle: saline with Tween-80): 98 % of control

COC(=O)C1C=C2c3cccc4[nH]cc(c34)CC2N(C)C1 (stereo not given)
T/C (endpoint: mean survival time, dose: 100.0 mg/kg/injection, schedule: Q04DX003 (ip), vehicle: saline sonified): 97 % of control | T/C (endpoint: mean survival time, dose: 200.0 mg/kg/injection, schedule: Q04DX003 (ip), vehicle: saline sonified): 97 % of control | T/C (endpoint: mean survival time, dose: 400.0 mg/kg/injection, schedule: Q04DX003 (ip), vehicle: saline sonified): 109 % of control

CCCCCCCCCCCCCCCCOc1ccc(S(=O)(=O)NC2CCCCC2)cc1N
T/C [4]: 104 % of control | T/C [5]: 94 % of control | T/C (endpoint: mean survival time, dose: 400.0 mg/kg/injection, schedule: Q04DX003 (ip), vehicle: saline with Tween-80): 96 % of control

O=C(C=C(C(F)(F)F)C(F)(F)F)c1ccco1
T/C (endpoint: mean survival time, dose: 12.5 mg/kg/injection, schedule: Q04DX003 (ip), vehicle: saline with Tween-80): 105 % of control | T/C (endpoint: mean survival time, dose: 25.0 mg/kg/injection, schedule: Q04DX003 (ip), vehicle: saline with Tween-80): 102 % of control | T/C (endpoint: mean survival time, dose: 50.0 mg/kg/injection, schedule: Q04DX003 (ip), vehicle: saline with Tween-80): 94 % of control

C=CCN(CC=C)P(=O)(N1CC1C)N1CC1C (stereo not given)
T/C (endpoint: mean survival time, dose: 1.0 mg/kg/injection, schedule: Q01DX009 (ip), vehicle: saline): 122 % of control | T/C (endpoint: mean survival time, dose: 2.5 mg/kg/injection, schedule: Q01DX001 (ip), vehicle: saline): 115 % of control

Cc1ccc(NC(=O)C2CCC(C)(C(=O)O)C2(C)C)cc1 (stereo not given)
T/C [4]: 96 % of control | T/C [5]: 91 % of control

Cc1ccc(N)c(Br)c1
T/C (endpoint: mean survival time, dose: 25.0 mg/kg/injection, schedule: Q04DX003 (ip), vehicle: saline): 111 % of control | T/C [1]: 100 % of control | T/C [4]: 92 % of control | T/C [2]: 98 % of control and 100 % of control | T/C [5]: 98 % of control

COC12[C@@H]3N[C@@H]3CN1C1=C(C(=O)C(NCCSSCCNC3=C(C)C(=O)C4=C(C3=O)C(COC(N)=O)[C@]3(OC)C5N[C@@H]5CN43)=C(C)C1=O)[C@@H]2COC(N)=O (stereo not given in full)
T/C (endpoint: mean survival time, dose: 1.5 mg/kg/injection, schedule: Q01DX001 (ip), vehicle: distilled water + Tween-80): 109 % of control | T/C (endpoint: mean survival time, dose: 1.5 mg/kg/injection, schedule: Q01DX001 (ip), vehicle: water): 110 % of control | T/C (endpoint: mean survival time, dose: 3.0 mg/kg/injection, schedule: Q01DX001 (ip), vehicle: water): 121 % of control | T/C (endpoint: mean survival time, dose: 6.0 mg/kg/injection, schedule: Q01DX001 (ip), vehicle: water): 122 % of control | T/C (endpoint: mean survival time, dose: 12.0 mg/kg/injection, schedule: Q01DX001 (ip), vehicle: distilled water + Tween-80): 162 % of control | T/C (endpoint: mean survival time, dose: 12.0 mg/kg/injection, schedule: Q01DX001 (ip), vehicle: water): 151 % of control | T/C (endpoint: mean survival time, dose: 24.0 mg/kg/injection, schedule: Q01DX001 (ip), vehicle: water): 104 % of control | T/C (endpoint: median survival time, dose: 0.05 mg/kg/injection, schedule: Q01DX009 (ip), vehicle: other): 108 % of control | T/C (endpoint: median survival time, dose: 0.1 mg/kg/injection, schedule: Q01DX009 (ip), vehicle: other): 119 % of control | T/C (endpoint: median survival time, dose: 0.2 mg/kg/injection, schedule: Q01DX009 (ip), vehicle: other): 119 % of control | T/C (endpoint: median survival time, dose: 0.2 mg/kg/injection, schedule: Q04DX003 (ip), vehicle: other): 104 % of control | T/C (endpoint: median survival time, dose: 0.4 mg/kg/injection, schedule: Q01DX001 (ip), vehicle: other): 119 % of control | T/C (endpoint: median survival time, dose: 0.4 mg/kg/injection, schedule: Q04DX003 (ip), vehicle: other): 110 % of control | T/C (endpoint: median survival time, dose: 0.8 mg/kg/injection, schedule: Q01DX001 (ip), vehicle: other): 116 % of control | T/C (endpoint: median survival time, dose: 0.8 mg/kg/injection, schedule: Q04DX003 (ip), vehicle: other): 124 % of control | T/C (endpoint: median survival time, dose: 1.6 mg/kg/injection, schedule: Q03DX003 (ip), vehicle: other): 151 % of control | T/C (endpoint: median survival time, dose: 3.2 mg/kg/injection, schedule: Q01DX009 (ip), vehicle: other): 161 % of control | T/C (endpoint: median survival time, dose: 3.2 mg/kg/injection, schedule: Q03DX003 (ip), vehicle: other): 154 % of control and 176 % of control | T/C (endpoint: median survival time, dose: 3.2 mg/kg/injection, schedule: Q04DX003 (ip), vehicle: other): 165 % of control | T/C (endpoint: median survival time, dose: 6.4 mg/kg/injection, schedule: Q01DX009 (ip), vehicle: other): 124 % of control | T/C (endpoint: median survival time, dose: 6.4 mg/kg/injection, schedule: Q03DX003 (ip), vehicle: other): 173 % of control and 187 % of control | T/C (endpoint: median survival time, dose: 6.4 mg/kg/injection, schedule: Q04DX003 (ip), vehicle: other): 178 % of control | T/C (endpoint: median survival time, dose: 9.6 mg/kg/injection, schedule: Q01DX001 (ip), vehicle: other): 168 % of control | T/C (endpoint: median survival time, dose: 9.6 mg/kg/injection, schedule: Q03DX003 (ip), vehicle: other): 154 % of control | T/C (endpoint: median survival time, dose: 9.6 mg/kg/injection, schedule: Q04DX003 (ip), vehicle: other): 169 % of control | T/C (endpoint: median survival time, dose: 19.2 mg/kg/injection, schedule: Q01DX001 (ip), vehicle: other): 160 % of control
